Reference: patent US20050009730A1, “Treatment of cns disorders using cns target modulators” (priority 2001, published 2005)
pIC50, pKi: −log10 of the molar value. Where two headings read alike, the source gives them in different places. Marks after values point to notes of the source that are not given here.

Key:
Male Wistar rats = experiment: Sleep-wakefulness, locomotor activity and body temperature monitoring (SCORE-2000), treatment at CT-18
[1] = target: T1, Muscarinic, M2 (Human Recombinant) (Homo sapiens, UniProt P08172); experiment: Receptor selectivity binding assay comparison; conditions: 1.0E−6
T1 sequence (P08172 1-466): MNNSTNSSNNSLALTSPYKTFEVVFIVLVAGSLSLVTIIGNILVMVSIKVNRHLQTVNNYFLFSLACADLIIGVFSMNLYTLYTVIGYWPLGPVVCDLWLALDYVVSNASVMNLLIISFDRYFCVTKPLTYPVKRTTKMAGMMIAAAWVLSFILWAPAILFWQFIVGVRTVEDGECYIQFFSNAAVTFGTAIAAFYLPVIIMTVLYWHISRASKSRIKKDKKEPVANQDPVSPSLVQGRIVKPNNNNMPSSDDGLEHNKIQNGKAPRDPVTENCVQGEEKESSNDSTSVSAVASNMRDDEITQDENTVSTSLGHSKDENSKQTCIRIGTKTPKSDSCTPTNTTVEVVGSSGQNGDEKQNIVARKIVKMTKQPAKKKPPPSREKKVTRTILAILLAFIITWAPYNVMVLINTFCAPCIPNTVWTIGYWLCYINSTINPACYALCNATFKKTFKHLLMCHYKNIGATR

HERG = HERG (Homo sapiens, UniProt Q12809)
Chain of HERG (Q12809 whole entry): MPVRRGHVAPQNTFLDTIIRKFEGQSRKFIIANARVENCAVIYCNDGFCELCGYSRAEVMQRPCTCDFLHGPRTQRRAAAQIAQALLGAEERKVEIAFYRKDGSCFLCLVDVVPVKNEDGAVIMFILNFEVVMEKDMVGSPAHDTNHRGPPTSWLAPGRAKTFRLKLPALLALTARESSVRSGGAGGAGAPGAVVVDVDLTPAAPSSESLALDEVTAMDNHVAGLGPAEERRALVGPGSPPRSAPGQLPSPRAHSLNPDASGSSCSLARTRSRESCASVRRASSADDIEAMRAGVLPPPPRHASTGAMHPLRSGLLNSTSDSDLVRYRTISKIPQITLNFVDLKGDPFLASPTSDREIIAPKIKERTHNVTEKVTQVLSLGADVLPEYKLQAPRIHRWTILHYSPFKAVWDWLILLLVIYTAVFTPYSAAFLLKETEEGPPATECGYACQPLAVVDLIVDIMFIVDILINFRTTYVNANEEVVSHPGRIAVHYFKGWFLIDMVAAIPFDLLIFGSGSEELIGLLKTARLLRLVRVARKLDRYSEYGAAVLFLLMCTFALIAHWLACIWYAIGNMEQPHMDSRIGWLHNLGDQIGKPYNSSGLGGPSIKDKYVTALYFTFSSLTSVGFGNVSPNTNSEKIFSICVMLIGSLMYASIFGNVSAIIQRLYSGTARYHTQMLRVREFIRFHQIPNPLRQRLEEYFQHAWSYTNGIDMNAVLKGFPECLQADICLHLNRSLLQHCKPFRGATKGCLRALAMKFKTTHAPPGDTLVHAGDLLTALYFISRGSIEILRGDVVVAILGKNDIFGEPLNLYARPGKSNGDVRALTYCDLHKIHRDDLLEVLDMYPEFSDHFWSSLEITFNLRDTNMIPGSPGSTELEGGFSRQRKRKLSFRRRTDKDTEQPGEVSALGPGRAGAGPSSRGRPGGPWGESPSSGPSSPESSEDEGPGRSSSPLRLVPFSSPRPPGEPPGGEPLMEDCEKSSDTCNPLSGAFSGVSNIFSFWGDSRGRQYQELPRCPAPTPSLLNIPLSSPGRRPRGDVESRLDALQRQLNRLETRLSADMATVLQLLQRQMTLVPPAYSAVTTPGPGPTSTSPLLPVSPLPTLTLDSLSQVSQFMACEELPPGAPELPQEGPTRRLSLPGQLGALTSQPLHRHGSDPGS

Histamine, H2 = Histamine, H2 (Homo sapiens, UniProt P25021); experiment: Receptor selectivity binding assay comparison; conditions: 1.0E−6
Chain of Histamine, H2 (P25021 whole entry): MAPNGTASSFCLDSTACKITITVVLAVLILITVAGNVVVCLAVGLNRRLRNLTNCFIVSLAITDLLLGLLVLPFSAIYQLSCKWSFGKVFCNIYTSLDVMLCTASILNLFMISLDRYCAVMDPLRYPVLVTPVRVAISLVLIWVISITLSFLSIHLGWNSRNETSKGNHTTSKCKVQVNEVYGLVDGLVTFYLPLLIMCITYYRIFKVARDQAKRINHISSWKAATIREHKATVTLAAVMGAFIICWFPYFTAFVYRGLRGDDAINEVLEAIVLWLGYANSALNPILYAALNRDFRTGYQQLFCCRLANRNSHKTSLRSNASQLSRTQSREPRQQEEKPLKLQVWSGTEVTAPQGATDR

Histamine, H1 = Histamine, H1 (Homo sapiens, UniProt P35367); experiment: H1 binding assay by displacement of known standards; conditions: for Ki: read-out: Receptor Binding Data (Ki nM) H1; for pKi: read-out: H1 Ki
Chain of Histamine, H1 (P35367 whole entry): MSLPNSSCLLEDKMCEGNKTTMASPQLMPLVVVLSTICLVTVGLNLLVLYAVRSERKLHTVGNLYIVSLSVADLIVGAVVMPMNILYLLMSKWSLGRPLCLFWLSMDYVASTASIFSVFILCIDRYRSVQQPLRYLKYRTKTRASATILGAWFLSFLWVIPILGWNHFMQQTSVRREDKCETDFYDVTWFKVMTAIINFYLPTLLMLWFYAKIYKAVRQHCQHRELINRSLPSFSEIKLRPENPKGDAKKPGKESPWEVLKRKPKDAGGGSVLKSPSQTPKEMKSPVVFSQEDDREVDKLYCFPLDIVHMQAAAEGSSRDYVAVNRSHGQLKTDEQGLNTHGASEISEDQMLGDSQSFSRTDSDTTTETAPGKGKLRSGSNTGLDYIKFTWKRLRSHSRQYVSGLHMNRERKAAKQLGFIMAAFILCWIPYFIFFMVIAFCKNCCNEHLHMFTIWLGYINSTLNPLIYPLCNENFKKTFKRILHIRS
Method: (§1) The following binding assays were performed on the Series 11 compounds described above by displacement of known standards from the H1, M1, M2, and M3 receptors, wherein H1 is a histamine receptor, and M1, M2, and M3 are muscarinic receptors.
The binding studies against the histamine receptor, H1, indicate binding affinity, and therefore the results of the binding assays are an indication of the activity of the compound. […]
The following binding assays were performed on additional compounds described above by displacement of known standards from the H1, M1, M2, and M3 receptors, wherein H1 is a histamine receptor, and M1, M2, and M3 are muscarinic receptors.
The binding assays for H1 was the same as described in Example 10 and the M1, M2, and M3 binding assays are the same as those described in Example 10 for human recombinant expressed cells.

muscarinic receptors = experiment: Muscarinic receptor binding, M1, M2 and M3 taken together in the conclusions
Method: as §1
(§2) In addition, the binding studies against the muscarinic receptors indicate the extent to which the compounds bind the muscarinic receptors, responsible for anti-cholinergic activity of the compound. Binding to muscarinic receptors results in several undesired side effects of many known antihistamines, e.g., dry-mouth. A decrease in the binding of the compounds to the M1-M3 receptors, relative the binding of the compound to the H1 receptor, is an indication of the greater specificity of the compound for the histamine receptor over the muscarinic receptor.

M1 muscarinic receptor = target: T2, M1 muscarinic receptor (Homo sapiens, UniProt P11229); experiment: M1 binding assay by displacement of known standards (Example 11)
T2 sequence (P11229 1-460): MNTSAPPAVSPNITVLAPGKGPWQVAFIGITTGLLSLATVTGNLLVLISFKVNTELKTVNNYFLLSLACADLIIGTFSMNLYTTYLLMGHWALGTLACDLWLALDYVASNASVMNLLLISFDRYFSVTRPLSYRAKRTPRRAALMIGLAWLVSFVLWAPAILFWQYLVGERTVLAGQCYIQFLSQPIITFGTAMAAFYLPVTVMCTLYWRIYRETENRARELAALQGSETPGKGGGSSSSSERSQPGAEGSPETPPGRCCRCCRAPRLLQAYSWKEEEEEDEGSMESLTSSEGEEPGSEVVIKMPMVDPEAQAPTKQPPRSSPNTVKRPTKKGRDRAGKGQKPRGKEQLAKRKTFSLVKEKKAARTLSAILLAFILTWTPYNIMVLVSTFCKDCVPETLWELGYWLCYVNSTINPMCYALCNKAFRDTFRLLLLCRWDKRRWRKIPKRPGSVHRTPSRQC
Method: as §1, §2

M2 muscarinic receptor = target: T3, M2 muscarinic receptor (Homo sapiens, UniProt P08172); experiment: M2 binding assay by displacement of known standards (Example 11)
T3 sequence (P08172 1-466): T1 sequence (P08172 1-466)
Method: as §1, §2

M3 muscarinic receptor = M3 muscarinic receptor (Homo sapiens, UniProt P20309); experiment: M3 binding assay by displacement of known standards (Example 11)
Chain of M3 muscarinic receptor (P20309 whole entry): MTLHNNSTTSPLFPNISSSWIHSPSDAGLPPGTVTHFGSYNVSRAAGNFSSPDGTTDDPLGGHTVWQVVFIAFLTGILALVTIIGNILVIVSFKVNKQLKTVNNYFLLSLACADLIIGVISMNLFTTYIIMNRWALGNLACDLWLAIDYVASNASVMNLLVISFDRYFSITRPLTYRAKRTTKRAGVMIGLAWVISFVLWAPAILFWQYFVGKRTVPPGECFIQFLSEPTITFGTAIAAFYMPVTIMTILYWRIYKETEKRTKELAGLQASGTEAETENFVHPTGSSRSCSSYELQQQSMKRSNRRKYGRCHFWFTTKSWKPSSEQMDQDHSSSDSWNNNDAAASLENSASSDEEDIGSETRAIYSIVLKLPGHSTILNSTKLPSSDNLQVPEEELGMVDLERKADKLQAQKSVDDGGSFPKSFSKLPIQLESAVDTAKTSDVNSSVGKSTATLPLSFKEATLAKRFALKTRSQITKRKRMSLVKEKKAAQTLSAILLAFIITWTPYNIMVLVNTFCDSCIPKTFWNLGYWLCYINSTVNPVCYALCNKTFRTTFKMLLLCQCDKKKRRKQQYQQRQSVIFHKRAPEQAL
Method: as §1, §2

[2] = 10 mg/kg or 30 mg/kg, intraperitoneal
[3] = 30 mg/kg and 10 mg/kg, intraperitoneal, CT-18

SMILES | Average Bout-Length (Male Wistar rats; 30 mg/kg PO, at CT-18) | Duration (Male Wistar rats; 30 mg/kg PO, at CT-18) | Maximum Bout Length (Male Wistar rats; 30 mg/kg PO, at CT-18) | NREM Accum. (Male Wistar rats; 30 mg/kg PO, at CT-18) | NREM Peak (Male Wistar rats; 30 mg/kg PO, at CT-18) | Onset (Male Wistar rats; 30 mg/kg PO, at CT-18) | pIC50 (Histamine, H1) | pKi (Histamine, H1) | other results
Cc1ccc(-c2nc3ccc(C)cn3c2CC(=O)N(C)C)cc1 [Ambien, Zolpidem, reference compound] |  |  |  |  |  |  |  |  | Average Bout-Length (Male Wistar rats; 30 mg/kg IP, at CT-18): 5.8 min; Duration (Male Wistar rats; 30 mg/kg IP, at CT-18): 3 to 4 h; Maximum Bout Length (Male Wistar rats; 30 mg/kg IP, at CT-18): 13.1 min; Motor Inhibition (Male Wistar rats; 30 mg/kg IP, at CT-18): YES; NREM Accum. (Male Wistar rats; 30 mg/kg IP, at CT-18): 58.7 min; NREM Peak (Male Wistar rats; 30 mg/kg IP, at CT-18): 58.2 %/hr; Onset (Male Wistar rats; 30 mg/kg IP, at CT-18): 5 min; REM Inhibition (Male Wistar rats; 30 mg/kg IP, at CT-18): YES; Rebound Insomnia (Male Wistar rats; 30 mg/kg IP, at CT-18): YES
CN(C)CCC=C1c2ccccc2COc2ccccc21 [Doxepin, reference compound] |  |  |  |  |  |  |  |  | Percent Inhibition, Muscarinic, M2 (Human Recombinant) [1]: […]; Percent Inhibition, HERG (HERG): 23%**; Percent Inhibition, Histamine, H2 (Histamine, H2): 74.7%
Cl.O=C(O)CCN1CCC(OC(c2ccccc2)c2ccccc2)CC1 [Series 6a, 3-[4-(diphenylmethoxy)piperidin-1-yl]propanoic acid hydrochloride] | 7.0 min | 5 h | 12.8 min | 26.5 min | 56.4 %/hr | 65 min |  |  | Ki (Histamine, H1): 56.1 nM
O=C(O)CN1CCC(=C2c3ccccc3COc3ccccc32)CC1 [Series 7a] | 7.3 min | 5 to 6 h | 16.9 min | 29.5 min | 56.9 %/hr | 130 min |  |  | Ki (Histamine, H1): 55.1 nM
Cl.O=C(O)CCN1CCC(=C(c2ccccc2)c2ccccc2)CC1 [Series 11a] | 11.2 min | 6 h | 18.7 min | 41.2 min | 67.3 %/hr | 85 min | 6.51 | 6.92 | Rebound Insomnia (Male Wistar rats; 30 mg/kg PO, at CT-18): Minor
CC(C)OC(=O)CCN1CCC(=C(c2ccccc2)c2ccccc2)CC1 [Series 11d, Isopropyl 3-[4-(diphenylmethylidene)piperidin-1-yl]propanoate] | 11.0 min | 6 h | 20.1 min | 55.5 min | 58.5 %/hr | 135 min | 6.42 | 6.83 | 
CC(C)COC(=O)CCN1CCC(=C(c2ccccc2)c2ccccc2)CC1 [Series 11e, Isobutyl 3-[4-(diphenylmethylidene)piperidin-1-yl]propanoate] | 8.3 min | 6 h | 19.1 min | 49.6 min | 59.6 %/hr | 80 min | 6.14 | 6.55 | 
O=C(CCN1CCC(=C(c2ccccc2)c2ccccc2)CC1)OC1CCCC1.O=C(O)C(=O)O [Series 11f, Cyclopentyl 3-[4-(diphenylmethylidene)piperidin-1-yl]propanoate, oxalic acid salt] |  |  |  |  |  |  | 5.97 | 6.38 | REM sleep inhibition (Male Wistar rats; [2]): did not, however, produce; Rebound Insomnia (Male Wistar rats; [2]): did not, however, produce; time post-treatment for which total sleep time was increased (Male Wistar rats; [3]): 3 h; total sleep time (Male Wistar rats; [3]): significantly increased; cumulative effect on total sleep time (TST) during the initial 5 hours post-treatment, relative to baseline (Male Wistar rats; 30 mg/kg versus Zolpidem 10 mg/kg): induced more TST than Zolpidem; sleep continuity, as assessed by sleep bout length (Male Wistar rats; 10 and 30 mg/kg, intraperitoneal, relative to vehicle control): increased sleep continuity; soporific effects (Male Wistar rats; administered at CT-18, intraperitoneal bolus): robust soporific effects; locomotor activity (Male Wistar rats; intraperitoneal, CT-18): reduction; sleep inducing effects compared to therapeutic doses of Ambien (Zolpidem) (Male Wistar rats; intraperitoneal, CT-18): equal or better; increase of sleep time and sleep continuity (sleep bout lengths): dependence on dose (Male Wistar rats; laboratory rats, 10 and 30 mg/kg): dose-dependent
O=C(CCN1CCC(=C(c2ccccc2)c2ccccc2)CC1)O[C@H]1CCOC1 [Series 11g] |  |  |  |  |  |  | 6.71 | 7.06 | difference in binding affinity towards the H1 receptor between the enantiomeric compounds (Histamine, H1): do not result in a substantial difference; difference in binding affinity towards the muscarinic receptors between the enantiomeric compounds (muscarinic receptors): do show a substantial difference; pIC50 (M1 muscarinic receptor): 5.33; pKi (M1 muscarinic receptor): 6.44; pIC50 (M2 muscarinic receptor): 5.24; pKi (M2 muscarinic receptor): 5.68; pIC50 (M3 muscarinic receptor): 5.24; pKi (M3 muscarinic receptor): 5.81
